9 compounds from PubChem BioAssay (NCI) can be followed below.

Holding throughout (test): NCI-60 cell line screen, 48 h
Experiment [1] deals with EKVX NSCLC.
Experiment [2] concerns HCT-116 colon.
The test system of experiment [3] is HT29 colon.
For experiment [4], the system named is K-562 leukemia.
Experiment [5] concerns MDA-MB-231 breast.
The test system of experiment [6] is NCI-H460 lung.
The subject of experiment [7] is RPMI-8226 leukemia.
Experiment [8] has as its system SF-268 CNS.
Experiment [9] relates to SK-MEL-5 melanoma.
For experiment [10], the system named is UACC-257 melanoma.

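Method: 48-hour compound exposure of cells in 96-well plates, five concentrations, linear interpolation of endpoints. The concentration for 50% growth inhibition is given as GI50. TGI denotes the concentration required for complete inhibition of growth.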

For the compound `COc1cc2c3c(n(CCCN(C)C)c(=O)c2cc1OC)-c1ccccc1C3=O`, the GI50 is over 43.7 µM in experiment [1]; 3.71 µM in experiment [2]; 0.738 µM in experiment [3]; 4.39 µM in experiment [4]; 10.6 µM in experiment [5]; 3.51 µM in experiment [6]. In addition, the GI50 in experiment [7] was 0.238 µM; in [8] it was 7.69 µM; in [9], 10.1 µM; in experiment [10], over 100 µM. Further, the TGI in [1] was over 72.7 µM; in experiment [2] it was 16.6 µM; in [3] it was 16.6 µM; in experiment [4], 24.4 µM; in [5], 23.6 µM; in [6], 21.6 µM. Further, the TGI in experiment [7] was 1.53 µM; in experiment [8] it was over 100 µM; in experiment [9] it was 47 µM; in experiment [10] it was over 100 µM.

Regarding `COc1ccc(-c2c[nH]c(=S)n2-c2ccc(OC)cc2)cc1`, the GI50 in experiment [1], in experiment [2], in [3], in experiment [4], in experiment [5] and in [6] was over 50 µM in each case. In addition, the GI50 was 20.4 µM in experiment [7], over 50 µM in experiment [8], over 50 µM in [9] and over 50 µM in [10]. Besides, the TGI in [1], in experiment [2], in [3], in experiment [4], in experiment [5] and in [6] was over 50 µM in each case. Also, the TGI in experiment [7], in experiment [8], in [9] and in [10] was over 50 µM in each case.

With `Cc1cn2c(/C=C3\C(=O)N(C)c4ccc(O)cc43)c(C)nc2s1`, the GI50 in [1] was 14.8 µM; in [2], 4.04 µM; in experiment [3] it was 3.12 µM; in [4], 2.01 µM; in experiment [5] it was 7.89 µM; in [6], 3.54 µM. The GI50 was 5.98 µM in experiment [7], 9.08 µM in [8], 3.45 µM in [9] and over 100 µM in experiment [10]. The TGI in experiment [1] is over 100 µM; in [2], over 100 µM; in experiment [3], 18.4 µM; in [4], 20.6 µM; in experiment [5], over 100 µM; in experiment [6] it was 21.3 µM. The TGI in experiment [7] was over 100 µM; in experiment [8] it was over 100 µM; in [9], 57.6 µM; in experiment [10] it was over 100 µM.

As for `Cc1cc[c-]cc1.Fc1c[c-]c(-c2ccccn2)c(F)c1.[Pt+2].c1ccc(P(C[PH+](c2ccccc2)c2ccccc2)c2ccccc2)cc1`, the GI50 in experiment [1] is 2.32 µM; in [2] it was 2.65 µM; in [3], 2.61 µM; in experiment [4], 1.56 µM; in experiment [5], 2.6 µM; in experiment [6], 1.77 µM. Further, the GI50 is 0.719 µM in [7], 2.9 µM in experiment [8], 1.66 µM in [9] and 2.37 µM in [10]. In addition, the TGI amounted to 12.7 µM in experiment [1]; 11.2 µM in experiment [2]; 12.4 µM in experiment [3]; 12.2 µM in [4]; 8.47 µM in experiment [5]; 7.1 µM in [6]. The TGI was found to be 4.38 µM in experiment [7], 13.5 µM in [8], 3.05 µM in experiment [9] and 8.15 µM in [10].

`CCOC(=O)c1c[nH]c2oc(/C=N/N3CC(CN4CCOCC4)OC3=O)cc2c1=O` (stereo not given): the TGI in experiment [1], in experiment [2], in [3], in experiment [4], in [5] and in experiment [6] was over 100 µM each time. Besides, the TGI in experiment [7], in experiment [8], in experiment [9] and in [10] was over 100 µM each time.

In the case of `C[C@]12CC[C@H](O)C[C@H]1CC[C@@H]1[C@@H]2CC[C@]2(C)[C@@H](C3=CC(=O)OC3)CC[C@]12O`, the TGI in [1] is 0.433 µM; in experiment [2] it was 0.0663 µM; in experiment [3], 1.6 µM; in experiment [4], 1.42 µM; in [5], over 62.2 µM; in experiment [6], 0.139 µM. Further, the TGI in experiment [7] worked out at 0.558 µM; in experiment [8], 0.226 µM; in experiment [9], 0.205 µM; in [10], 2.63 µM.

On to `O=C(Nc1ccc(CO)cc1)c1coc2ccccc2c1=O`, for which the GI50 in [1], in experiment [2], in experiment [3], in experiment [4], in experiment [5] and in experiment [6] was over 100 µM in each case. For the same compound, the GI50 in experiment [7] was 84.8 µM; in experiment [8], over 100 µM; in [9], over 100 µM; in [10], over 100 µM. The TGI in experiment [1], in [2], in experiment [3], in experiment [4], in experiment [5] and in [6] was over 100 µM throughout. Moreover, the TGI in experiment [7], in experiment [8], in experiment [9] and in [10] was over 100 µM throughout.

With `O=C(/C=C/c1cc(CN2CCOCC2)c(O)c2ncccc12)c1cc(CN2CCOCC2)c(O)c2ncccc12`, the GI50 in experiment [1] is 0.077 µM; in experiment [2], 0.0245 µM; in [3], 0.0695 µM; in [4], under 0.0114 µM; in experiment [5], 0.145 µM; in [6] it was under 0.0169 µM. For the same compound, the GI50 in [7] is 0.0222 µM; in experiment [8], 0.0469 µM; in experiment [9], 0.0237 µM; in experiment [10] it was 0.202 µM. The TGI in experiment [1] is over 100 µM; in experiment [2] it was over 100 µM; in experiment [3], over 100 µM; in experiment [4] it was over 100 µM; in experiment [5] it was over 100 µM; in [6] it was over 55.9 µM. Further, the TGI in [7] is over 100 µM; in [8] it was over 100 µM; in [9] it was 0.0607 µM; in experiment [10], 8.88 µM.

Take `CC(C)OC(=O)NNc1cc(Cl)ccc1Cl`: the TGI in experiment [1], in experiment [2], in experiment [3], in [4], in [5] and in [6] was over 100 µM each time. The TGI in experiment [7], in [8], in experiment [9] and in [10] was over 100 µM in each case.
